From patent US10143697B2, “Pharmaceutic composition comprising of HDAC inhibitor and a steroid and the use thereof” (VALCURIA AB, priority 2011, dated 2018)
Like-named read-outs stand apart in the source and are kept apart here.

Tests used:
WSU-NHL cells [1] = assay: pretreatment with Trichostatin A or Belinostat, Prednisolone and CHOP, viability by trypan blue exclusion; conditions: for sensitization to CHOP-treatment: pretreatment with the HDAC inhibitor alone before CHOP
Method: Viability was assessed by trypan blue exclusion at indicated time points (n=3). Significant differences were evaluated using Student's unpaired t-test. All tests were two-sided. Effects were considered statistically significant at *P<0.05, **P<0.01, ***P<0.001.

WSU-NHL cells [2] = assay: pretreatment with VPA and prednisolone before CHOP, viability by trypan blue exclusion; assay type: cell-based
Source text: Pretreatment with VPA before CHOP could theoretically increase the response to CHOP therapy through induction of DNA damage. However, VPA treatment could result in symptoms such as somnolence in a patient. These symptoms could be counteracted by simultaneous treatment with prednisolone. […] All tests were two-sided.

WSU-NHL cells [3] = assay: Rituximab antibody-dependent cellular cytotoxicity (ADCC) with NK cells, dead target cells PKH26/7-AAD double positive; assay type: cell-based
Method: (§1) To estimate the impact of VPA on the antibody-dependent-cellular cytotoxicity (ADCC) induced by the CD20 antibody Rituximab. […]
(§2) NK cells were added as an effector to target cell ratio of 10:1, thereafter the cells were incubated for an additional 20 hours. Dead target cells were identified as double positive for PKH26 and 7-AAD and used as readout of the assay.

SU-DHL-8 cells [4] = assay: as above; assay type: cell-based
Method: as §1, §2

histone H3 = assay: acetylation of histone H3 by western blot analysis in DLBCL cell line model; assay type: cell-based; conditions: valproic acid at pharmacological concentrations
[5] = VPA serum concentration in patients; assay type: in vivo, human; conditions: 5 day VPA treatment for compassionate use as noted by the inventor
Method: (§3) The DLBCL cell lines SU-DHL-8 (Table 2A) and WSU-NHL (Table 2B) were treated for 72 hours with 0.5 mM or 1.5 mM VPA alone, or in combination with CHOP. The concentration of 0.5 mM VPA was chosen because it is a normal serum concentration during continuous VPA treatment in patients with epilepsy. The concentration of 1.5 mM VPA was chosen because it is the maximal tolerated serum concentration during 5 day VPA treatment for compassionate use as noted by the inventor.

[6] = continuous VPA treatment in patients with epilepsy; cited from earlier work
WSU-NHL = assay: cell viability time course by trypan blue exclusion, 0.5 mM or 1.5 mM VPA alone or with CHOP; assay type: cell-based; conditions: Homo sapiens, read-out: Viability (% of control cells day 1); for viability at 500 µM: 0.5 mM VPA; for viability at 1500 µM: 1.5 mM VPA
Method: as §3
(§4) The cell viability was assessed after 0 (Day 1), 24 (Day 2), 48 (Day 3) and 72 (Day 4) hours respectively, by trypan blue exclusion and normalised to untreated control cells. Data are presented as mean, n=3.
(§5) Treatment effects on viability were tested against the effects of CHOP treatment alone. […] All tests were two-sided. Effects were considered statistically significant at P<0.05 (*) and P<0.01 (**).
(§6) Viability (% of control cells day 1) are shown in Table 2A (SU-DHL-8) and Table 2B (WSU-NHL, n=3) respectively.

SU-DHL-8 = assay: as above; assay type: cell-based; conditions: Homo sapiens, read-out: Viability (% of control cells day 1); for viability at 500 µM: SU-DHL-8, 0.5 mM VPA; for viability at 1500 µM: SU-DHL-8, 1.5 mM VPA
Method: as §3, §4, §5, §6

Karpas-422 cells = assay: cell viability by trypan blue exclusion after 72 hours, VPA alone or in combination with CHOP; assay type: cell-based; conditions: Homo sapiens, KARPAS-422, 72 h; for viability at 100 µM: 0.1 mM VPA; for viability at 2000 µM: 2 mM VPA; for viability at 10000 µM: 10 mM VPA
Method: (§7) The DLBCL cell lines WSU-NHL, Karpas-422, ULA, SU-DHL-5 and SU-DHL-8 cells were treated for 72 hours with three different concentrations (0.1 mM, 2 mM and 10 mM respectively) of valproic acid (VPA) alone, or in combination with CHOP. The CHOP regimen used in all examples consists of 10 μM cyclophosphamide monohydrate, 20 nM doxorubicin hydrochloride, 2 nM vincristine sulfate and 20 μg/ml prednisolone. (Ageberg, Rydström, Lindén, Linderoth, Jerkeman and Drott; Exp Cell Research; May 1; 317(8):1179-91).
(§8) The cell viability was assessed after 72 hours by trypan blue exclusion and normalised to untreated control cells at day 0 (seeding). Data are presented as mean±SEM, n=3.

WSU-NHL cells [7] = assay: as above; assay type: cell-based; conditions: Homo sapiens; for viability at 100 µM: 0.1 mM VPA; for viability at 2000 µM: 2 mM VPA; for viability at 10000 µM: 10 mM VPA
Method: as §7, §8

SU-DHL-5 cells = assay: as above; assay type: cell-based; conditions: Homo sapiens, SU-DHL-5, 72 h; for viability at 100 µM: 0.1 mM VPA; for viability at 2000 µM: 2 mM VPA; for viability at 10000 µM: 10 mM VPA
Method: as §7, §8

ULA cells = assay: as above; assay type: cell-based; conditions: for viability at 100 µM: 0.1 mM VPA; for viability at 2000 µM: 2 mM VPA; for viability at 10000 µM: 10 mM VPA
Method: as §7, §8

SU-DHL-8 cells [8] = assay: as above; assay type: cell-based; conditions: Homo sapiens, SU-DHL-8, 72 h; for viability at 100 µM: 0.1 mM VPA; for viability at 2000 µM: 2 mM VPA; for viability at 10000 µM: 10 mM VPA
Method: as §7, §8

[9] = 1.5 mM VPA for 24 hours before rituximab
[10] = Rituximab 0 μg/ml, +NK Cells + 1.5 mM VPA
[11] = Rituximab 0.1 μg/ml, +NK Cells + 1.5 mM VPA
[12] = Rituximab 0.1 μg/ml, +NK Cells + 1.5 mM VPA + CHOP
[13] = Rituximab 0.1 μg/ml, +NK cells + CHOP
[14] = Rituximab 1 μg/ml, +NK Cells + 1.5 mM VPA
[15] = Rituximab 1 μg/ml, +NK Cells + 1.5 mM VPA + CHOP
[16] = Rituximab 1 μg/ml, +NK cells + CHOP
[17] = Rituximab 10 μg/ml, +NK Cells + 1.5 mM VPA
[18] = Rituximab 10 μg/ml, +NK Cells + 1.5 mM VPA + CHOP
[19] = Rituximab 10 μg/ml, +NK cells + CHOP

O=C(/C=C/c1cccc(S(=O)(=O)Nc2ccccc2)c1)NO [Belinostat]
sensitization to CHOP-treatment (WSU-NHL cells [1]): sensitized DLBCL cell lines to CHOP-induced cell death

C[C@]12C=CC(=O)C=C1CC[C@@H]1[C@@H]2[C@@H](O)C[C@@]2(C)[C@H]1CC[C@]2(O)C(=O)CO [Prednisolone]
CHOP-induced cell death (WSU-NHL cells [1]; prednisolone (20 μg/ml) added to HDAC inhibitor pretreatment before CHOP): significantly increases CHOP-induced cell death | CHOP-induced cell death (WSU-NHL cells [2]; prednisolone (20 μg/ml) added to VPA pretreatment before CHOP, compared to pretreatment with VPA alone): further increases significantly CHOP-induced cell death

CC(/C=C/C(=O)NO)=C\[C@@H](C)C(=O)c1ccc(N(C)C)cc1 [TSA, Trichostatin A]
sensitization to CHOP-treatment (WSU-NHL cells [1]): sensitizes lymphoma cell lines to CHOP-treatment

CCCC(CCC)C(=O)O [VPA, valproic acid]
effect on Rituximab induced ADCC (WSU-NHL cells [3]; [9]): does not affect Rituximab induced ADCC | percentage of dead cells, Mean (WSU-NHL cells [3]; [10]): 27% | effect on Rituximab induced ADCC (SU-DHL-8 cells [4]; [9]): does not affect Rituximab induced ADCC | percentage of dead cells, Mean (SU-DHL-8 cells [4]; [10]): 34% | acetylation of histone H3 (histone H3): increase in acetylation of histone H3 | sensitization to CHOP-treatment (WSU-NHL cells [2]; pretreatment with VPA alone before CHOP): sensitizes lymphoma cell lines to CHOP-treatment | maximal tolerated serum concentration [5]: 1.5 mM | normal serum concentration [6]: 0.5 mM | viability at 500 µM (WSU-NHL; Day 1 (0 hours)): 100% | viability at 500 µM (WSU-NHL; Day 2 (24 hours)): 97% | viability at 500 µM (WSU-NHL; Day 3 (48 hours)): 99% | viability at 500 µM (WSU-NHL; Day 4 (72 hours)): 98% | viability at 1500 µM (WSU-NHL; Day 1 (0 hours)): 100% | viability at 1500 µM (WSU-NHL; Day 2 (24 hours)): 95% | viability at 1500 µM (WSU-NHL; Day 3 (48 hours)): 68% | viability at 1500 µM (WSU-NHL; Day 4 (72 hours)): 36% | viability at 500 µM (SU-DHL-8; Day 1 (0 hours)): 100% | viability at 500 µM (SU-DHL-8; Day 2 (24 hours)): 102% | viability at 500 µM (SU-DHL-8; Day 3 (48 hours)): 101% | viability at 500 µM (SU-DHL-8; Day 4 (72 hours)): 94% | viability at 1500 µM (SU-DHL-8; Day 1 (0 hours)): 100% | viability at 1500 µM (SU-DHL-8; Day 2 (24 hours)): 97% | viability at 1500 µM (SU-DHL-8; Day 3 (48 hours)): 64% | viability at 1500 µM (SU-DHL-8; Day 4 (72 hours)): 59% | viability at 100 µM (Karpas-422 cells; +CHOP): 80% | viability at 100 µM (Karpas-422 cells; −CHOP): 100% | viability at 2000 µM (Karpas-422 cells; +CHOP): 67% | viability at 2000 µM (Karpas-422 cells; −CHOP): 102% | viability at 10000 µM (Karpas-422 cells; +CHOP): 21% | viability at 10000 µM (Karpas-422 cells; −CHOP): 21% | viability at 100 µM (WSU-NHL cells [7]; +CHOP): 63% | viability at 100 µM (WSU-NHL cells [7]; −CHOP): 99% | viability at 2000 µM (WSU-NHL cells [7]; +CHOP): 6% | viability at 2000 µM (WSU-NHL cells [7]; −CHOP): 29% | viability at 10000 µM (WSU-NHL cells [7]; +CHOP): 0% | viability at 10000 µM (WSU-NHL cells [7]; −CHOP): 1% | viability at 100 µM (SU-DHL-5 cells; +CHOP): 26% | viability at 100 µM (SU-DHL-5 cells; −CHOP): 124% | viability at 2000 µM (SU-DHL-5 cells; +CHOP): 1% | viability at 2000 µM (SU-DHL-5 cells; −CHOP): 53% | viability at 10000 µM (SU-DHL-5 cells; +CHOP): 0% | viability at 10000 µM (SU-DHL-5 cells; −CHOP): 0% | viability at 100 µM (ULA cells; +CHOP): 73% | viability at 100 µM (ULA cells; −CHOP): 105% | viability at 2000 µM (ULA cells; +CHOP): 52% | viability at 2000 µM (ULA cells; −CHOP): 52% | viability at 10000 µM (ULA cells; +CHOP): 42% | viability at 10000 µM (ULA cells; −CHOP): 50% | viability at 100 µM (SU-DHL-8 cells [8]; +CHOP): 55% | viability at 100 µM (SU-DHL-8 cells [8]; −CHOP): 105% | viability at 2000 µM (SU-DHL-8 cells [8]; +CHOP): 0% | viability at 2000 µM (SU-DHL-8 cells [8]; −CHOP): 67% | viability at 10000 µM (SU-DHL-8 cells [8]; +CHOP): 0% | viability at 10000 µM (SU-DHL-8 cells [8]; −CHOP): 0%

Rituximab: the CD20 antibody Rituximab
percentage of dead cells, Mean (WSU-NHL cells [3]; [11]): 40% | percentage of dead cells, Mean (WSU-NHL cells [3]; [12]): 60% | percentage of dead cells, Mean (WSU-NHL cells [3]; Rituximab 0.1 μg/ml, +NK cells): 35% | percentage of dead cells, Mean (WSU-NHL cells [3]; [13]): 45% | percentage of dead cells, Mean (WSU-NHL cells [3]; [14]): 50% | percentage of dead cells, Mean (WSU-NHL cells [3]; [15]): 60% | percentage of dead cells, Mean (WSU-NHL cells [3]; Rituximab 1 μg/ml, +NK cells): 45% | percentage of dead cells, Mean (WSU-NHL cells [3]; [16]): 54% | percentage of dead cells, Mean (WSU-NHL cells [3]; [17]): 56% | percentage of dead cells, Mean (WSU-NHL cells [3]; [18]): 66% | percentage of dead cells, Mean (WSU-NHL cells [3]; Rituximab 10 μg/ml, +NK cells): 54% | percentage of dead cells, Mean (WSU-NHL cells [3]; [19]): 61% | percentage of dead cells, Mean (SU-DHL-8 cells [4]; [11]): 43% | percentage of dead cells, Mean (SU-DHL-8 cells [4]; [12]): 50% | percentage of dead cells, Mean (SU-DHL-8 cells [4]; Rituximab 0.1 μg/ml, +NK cells): 38% | percentage of dead cells, Mean (SU-DHL-8 cells [4]; [13]): 38% | percentage of dead cells, Mean (SU-DHL-8 cells [4]; [14]): 49% | percentage of dead cells, Mean (SU-DHL-8 cells [4]; [15]): 63% | percentage of dead cells, Mean (SU-DHL-8 cells [4]; Rituximab 1 μg/ml, +NK cells): 50% | percentage of dead cells, Mean (SU-DHL-8 cells [4]; [16]): 49% | percentage of dead cells, Mean (SU-DHL-8 cells [4]; [17]): 58% | percentage of dead cells, Mean (SU-DHL-8 cells [4]; [18]): 66% | percentage of dead cells, Mean (SU-DHL-8 cells [4]; Rituximab 10 μg/ml, +NK cells): 60% | percentage of dead cells, Mean (SU-DHL-8 cells [4]; [19]): 59%
